According to paper PMC6001580, “Synthesis and molecular modelling studies of pyrimidinones and pyrrolo[3,4-d]-pyrimidinodiones as new antiplasmodial compounds” (Memórias do Instituto Oswaldo Cruz, 2018):
Several values for one entry are separate records, joined by “and”; a condition that tells them apart may be missing. Identical values can stand only once. Like-named read-outs stand apart in the source and are kept apart here.

Key:
[1] = system: chloroquine-resistant Plasmodium falciparum W2 strain; assay: Antiplasmodial in vitro assay (HRPII sandwich ELISA, 72 h); assay type: cell-based; details: for IC50: Plasmodium falciparum, W2, 72 h; for SI (selectivity index): SI = MDL50 / IC50 (BGM cells vs P. falciparum W2)
Excerpt: Antiplasmodial in vitro assay - The cultivation of P. falciparum W2 strain (originating from Indochina and cultivated in the Malaria Research Laboratory, Oswaldo Cruz Foundation-Fiocruz), which is chloroquine-resistant, was made according to the protocol of [Trager and Jensen (1976)], using human erythrocytes (A^+) in an RPMI 1640 medium supplemented with human serum. Parasites were synchronised to obtain the young (ring) parasite forms ([Lambros and Vanderberg 1979]). Parasitaemia was adjusted to 0.05% and haematocrit to 1.5%. Subsequently, the cultures were placed in microplates with the drugs, previously diluted in dimethyl sulphoxide and medium (DMSO 0.02% v/v), to be tested in serial dilutions (50 - 0.78 µM), as well as positive controls (chloroquine in serial dilutions; 10 - 0.07 µM) and negative (no drug) controls. All the microplates were incubated for 72 h. The microplates were then subjected to three cycles of freezing and thawing; the parasite growth was measured through the quantification of histidine-rich protein II (HRPII) using specific monoclonal antibodies (MPFM ICLLAB-55A®, USA and MPFG55P ICLLAB®, USA) in sandwich ELISA ([Noedl et al. 2002]). Absorbance was read at 450 nm in an Espectramax 190 spectrophotometer (Molecular Devices, USA), and the determination of the IC50 was made using dose-response curves.

BGM cells = assay: Cytotoxicity evaluation on mammalian cells (MTT); assay type: cell-based; details: 24 h, mean of three experiments
Experimental: Cytotoxicity evaluation on mammalian cells - BGM cells (originally acquired from ATCC (American Type Culture Collection), Manassas, VA, USA by the Federal University of Minas Gerais, Brazil, and donated by Dr Antoniana Krettli - Federal University of Minas Gerais) were cultured in 75 cm^2 sterile ﬂasks containing RPMI 1640 medium supplemented with 10% foetal bovine serum (FBS) at a concentration of 5 x 10^3 cells per millilitre in a 5% CO2 atmosphere at 37 °C. Cells were added with the test compounds in serial dilution. When the cell monolayer was confluent, it was trypsinised, washed with a culture medium distributed in a flat-bottomed 96-well plate (1 × 10^5 cells/mL) and incubated for 24 h at 37 °C to ensure cell adherence. Then, the drugs were added in serial dilution (1000-15 µM) and incubated for 24 h at 37 °C. Subsequently, the MTT salt, in a concentration of 3 mg/mL, was added after 3 h; then, the supernatant was removed, and the dye present on the bottom of the plate wells was dissolved in DMSO in a volume of 100 µL/well DMSO. The microplates were then read in an Espectramax 190 (Molecular Devices, USA) spectrophotometer, using the 570 nm filter. The determination of MDL50 was performed using a dose response curves nonlinear regression function ([Denizot and Lang 1986]).

[2] = system: P. berghei ANKA expressing green fluorescent protein (PbA-GFP); assay: In vivo activity evaluation against P. berghei (four-day test in mice); design: species or system Plasmodium berghei; details: Swiss mice, 30 mg/Kg orally for four consecutive days, vs untreated controls; for Reduction (%) of parasitaemia, Day eight: day eight after infection; for Reduction (%) of parasitaemia, Day five: day five after infection
Excerpt: In vivo activity evaluation against P. berghei - Swiss mice (Institute of Science and Technology in Biomodels - Fiocruz) were inoculated with 10^5 erythrocytes infected with P. berghei ANKA expressing green fluorescent protein (PbA-GFP, a donation from the malaria research and reference reagent resource centre -MR4, Manassas, VA; deposited by CJ Janse and AP Waters; MR4 number: MRA-865) intraperitoneally (day 1 of the experiment). Three hours after inoculation, the animals were randomly divided into five groups of mice. […] All of the test compounds and chloroquine were administered at a dose of 30 mg/kg, orally by gavage for four consecutive days. On days 5 and 8 after infection, flow cytometry was used to detect and count the number of parasitised red blood cells (RBC) that expressed GFP in relation to 10,000 RBCs, thus assessing the evolution of parasitaemia. […] The antimalarial activity was determined by the percentage reduction in parasitaemia of treated animals compared to untreated controls ([Peters et al. 1975]).

Hemolysis assay = assay type: cell-based; details: erythrocyte suspension (1% haematocrit), at 1000 μM, 37 °C, read-out: haemolysis
Experimental: Hemolysis assay - The haemolysis assay was performed according to the protocol described by [Wang et al. (2010)]. The compounds were dissolved in DMSO (0.5% v/v). Suspensions of erythrocytes (1% haematocrit) were incubated with the compounds at serial dilutions ranging from 15 to 1000 µM, at 37 °C for 30 min with a constant stirring. A 0.05% solution of saponin (Sigma-Aldrich) was used as a positive control of the test as it generated 100% haemolysis, and the suspension of erythrocytes in the medium was used as a negative control (blank). Following incubation, suspensions were centrifuged at 1000 g for 10 min, and the absorbance of the supernatants was measured at 540 nm using an Espectramax 190 spectrophotometer. The haemolysis rate of the samples was calculated as follows: % haemolysis = (sample absorbance - blank absorbance) x 100 / absorbance of the control with saponin.

[3] = P. falciparum W2 strain, 72 h, HRPII ELISA, mean of three experiments, read-out: IC50

Compound	IC50 [1, 3]	SI (selectivity index) [1]	MDL50 (BGM cells)	Reduction (%) of parasitaemia, Day eight [2]	Reduction (%) of parasitaemia, Day five [2]	hemolysis at 30 min, 1000 µM (Hemolysis assay)	IC50 [1]
CCOC(=O)C1=C(CCl)NC(=O)NC1c1ccccc1 (centres unmarked) [1a]	6.38 ± 0.8 µM	3.9	24.6 ± 0.03 µM	–	–	–	–
CCOC(=O)C1=C(CCl)NC(=O)NC1c1ccc(OC)cc1 (centres unmarked) [1b]	–	19	57 µM and 57 ± 0.65 µM	33.8%	0%	–	–
CCOC(=O)C1=C(CCl)NC(=O)NC1c1cccc(Br)c1 (centres unmarked) [1c]	6.17 ± 0.02 µM	3.5	21.7 ± 1.24 µM	–	–	–	–
CCOC(=O)C1=C(CCl)NC(=O)NC1c1ccc(Cl)cc1 (centres unmarked) [1d]	1.96 ± 0.21 µM	1.3	2.5 ± 0.93 µM	–	–	3.6%	–
CCOC(=O)C1=C(CCl)NC(=O)NC1c1ccccc1OC (centres unmarked) [1e]	–	1.95	23.8 ± 0.6 µM	–	–	–	–
CCOC(=O)C1=C(CCl)NC(=O)NC1c1ccc(Br)cc1 (centres unmarked) [1f]	1.76 ± 0.27 µM	12.5	22 µM and 22 ± 0.56 µM	60.9%	9.1%	0.95%	–
CCOC(=O)C1=C(CCl)NC(=O)NC1c1cc(OC)c(OC)c(OC)c1 (centres unmarked) [1g]	24.1 ± 1.2 µM	0.9	21.7 ± 1.15 µM	–	–	–	–
CCOC(=O)C1=C(CCl)NC(=O)NC1c1ccccc1Cl (centres unmarked) [1h]	3.12 ± 0.06 µM	24.6	77 µM and 77 ± 0.87 µM	55.2%	0%	–	–
CCOC(=O)C1=C(CCl)NC(=O)NC1c1ccc(OC)cc1OC (centres unmarked) [1i]	2.98 ± 0.18 µM	3.3	9.7 ± 0.46 µM	–	–	–	–
CCOC(=O)C1=C(CCl)NC(=O)NC1c1ccc([N+](=O)[O-])cc1 (centres unmarked) [1j]	6 ± 0.8 µM	4.4	26.2 ± 1.1 µM	–	–	–	–
CCOC(=O)C1=C(CCl)NC(=O)NC1c1ccc(OC)c(OC)c1 (centres unmarked) [1k]	3 ± 0.25 µM	8.2	24.5 ± 0.09 µM	–	–	–	–
CCOC(=O)C1=C(CCl)NC(=O)NC1c1ccc(O)c(OC)c1 (centres unmarked) [1l]	3 µM	–	–	–	–	–	–
CCN(CC)CCCC(C)Nc1ccnc2cc(Cl)ccc12 (centres unmarked) [Chloroquine, reference compound]	–	–	–	100%	97.2%	–	0.55 ± 0.09 µM

Further lines, with some results ahead:

IC50 [1, 3]	Compound	SI (selectivity index) [1]	MDL50 (BGM cells)	Reduction (%) of parasitaemia, Day eight [2]	Reduction (%) of parasitaemia, Day five [2]	hemolysis at 30 min, 1000 µM (Hemolysis assay)	IC50 [1]
> 50 µM	O=C1NC2=C(C(=O)N(CCc3ccccc3)C2)C(c2ccccc2)N1 (centres unmarked) [2a]	–	> 100 µM	–	–	–	–
26.4 ± 0.26 µM	COc1ccc(C2NC(=O)NC3=C2C(=O)N(CCc2ccccc2)C3)cc1 (centres unmarked) [2b]	0.93	24.6 ± 1.23 µM	–	–	21.7%	–
> 50 µM	O=C1NC2=C(C(=O)N(CCc3ccccc3)C2)C(c2cccc(Br)c2)N1 (centres unmarked) [2c]	–	6.9 ± 0.97 µM	–	–	12.3%	–
22 ± 0.08 µM	COc1ccccc1C1NC(=O)NC2=C1C(=O)N(CCc1ccccc1)C2 (centres unmarked) [2e]	2.5	56 ± 1.83 µM	–	–	–	–
> 50 µM	O=C1NC2=C(C(=O)N(CCc3ccccc3)C2)C(c2ccc(Br)cc2)N1 (centres unmarked) [2f]	–	18.6 ± 1.21 µM	–	–	22.6%	–
> 50 µM	COc1cc(C2NC(=O)NC3=C2C(=O)N(CCc2ccccc2)C3)cc(OC)c1OC (centres unmarked) [2g]	< 0.1	6.2 ± 0.73 µM	–	–	–	–
> 50 µM	O=C1NC2=C(C(=O)N(CCc3ccccc3)C2)C(c2ccccc2Cl)N1 (centres unmarked) [2h]	–	> 100 µM	–	–	–	–
25.6 ± 0.09 µM	O=C1NC2=C(C(=O)N(CCc3ccccc3)C2)C(c2ccc([N+](=O)[O-])cc2)N1 (centres unmarked) [2j]	0.4	8.9 ± 0.9 µM	–	–	–	–
> 50 µM	O=C1NC2=C(C(=O)N(Cc3ccccc3)C2)C(c2ccccc2)N1 (centres unmarked) [3a]	–	> 100 µM	–	–	–	–
> 50 µM	COc1ccc(C2NC(=O)NC3=C2C(=O)N(Cc2ccccc2)C3)cc1 (centres unmarked) [3b]	–	> 100 µM	–	–	–	–
45 ± 0.79 µM	O=C1NC2=C(C(=O)N(Cc3ccccc3)C2)C(c2ccc(Cl)cc2)N1 (centres unmarked) [3d]	1.9	86 ± 1.27 µM	–	–	–	–
> 50 µM	COc1ccccc1C1NC(=O)NC2=C1C(=O)N(Cc1ccccc1)C2 (centres unmarked) [3e]	–	> 100 µM	–	–	–	–
26 ± 1.15 µM	O=C1NC2=C(C(=O)N(Cc3ccccc3)C2)C(c2ccc(Br)cc2)N1 (centres unmarked) [3f]	> 3.8	> 100 µM	–	–	–	–
> 50 µM	COc1cc(C2NC(=O)NC3=C2C(=O)N(Cc2ccccc2)C3)cc(OC)c1OC (centres unmarked) [3g]	–	> 100 µM	–	–	–	–
26.7 ± 0.56 µM	O=C1NC2=C(C(=O)N(Cc3ccccc3)C2)C(c2ccccc2Cl)N1 (centres unmarked) [3h]	> 3.8	> 100 µM	–	–	–	–
> 50 µM	COc1ccc(C2NC(=O)NC3=C2C(=O)N(Cc2ccccc2)C3)c(OC)c1 (centres unmarked) [3i]	–	> 100 µM	–	–	–	–
> 50 µM	O=C1NC2=C(C(=O)N(Cc3ccccc3)C2)C(c2ccc([N+](=O)[O-])cc2)N1 (centres unmarked) [3j]	–	> 100 µM	–	–	–	–
> 50 µM	COc1ccc(C2NC(=O)NC3=C2C(=O)N(Cc2ccccc2)C3)cc1OC (centres unmarked) [3k]	–	> 100 µM	–	–	–	–
